Data from US5451600A, “Substituted tetrahydrobenzopyrrolylfuranoic acid derivatives as phospholipase A2 inhibitors” (Hoffmann-La Roche Inc., priority 1994, dated 1995).

Assays:
[1] = target: T1, PLA2 activity in human synovial fluid (HSF) (Homo sapiens, UniProt P14555); assay: Phospholipase A2 (PLA2) enzymatic assay - % Inhibition of HSF-PLA2; assay type: biochemical; conditions: for inhibition at 5 µM: read-out: % Inhib. of HSF-PLA2 at 5 μM
T1 construct: Synovial fluid was obtained from patients with rheumatoid arthritis; from tissue; host or cells: cell-depleted synovial fluid of patients with rheumatoid arthritis
T1 sequence (P14555 21-144): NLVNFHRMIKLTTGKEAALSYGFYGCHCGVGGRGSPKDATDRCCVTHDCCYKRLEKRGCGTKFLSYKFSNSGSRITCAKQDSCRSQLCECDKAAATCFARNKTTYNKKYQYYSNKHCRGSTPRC
Excerpt: 1, Phospholipase A2 (PLA2) enzymatic assay - % Inhibition of HSF-PLA2
PLA2 assay procedure described by Hope et al., Inflammation 14:543-559 (1.990) was utilized to measure the inhibitory activity of the invention (inhibitor) against PLA2 activity in human synovial fluid (HSF). Synovial fluid was obtained from patients with rheumatoid arthritis. The assay procedure measured the release of [1-^14 C]oleic acid from the sn-2 position of phospholipids in autoclaved Escherichia coli previously grown in media containing [1-^14 C]oleic acid. The standard assay reaction conditions included 1×10^9 Escherichia coil (10,000 dpm ^14 C), 0.15% (v/v) cell-depleted HSF, (which was equivalent to 66 μg protein/mL) 2 mM CaCl2, 150 mM NaCl, 50 mM sodium (N-[2-hydroxyethyl] piperazine-N'-[2-ethanesulfonate]) (HEPES) buffer (pH 7.3), 1% dimethyl sulfoxide (DMSO) and various concentrations of inhibitor in a total volume of 0.5 ml. Inhibitors were dissolved in DMSO and added. The reaction was initiated by addition of HSF, incubated for 30 min at 37° C. and then stopped by addition of 2.5 ml of chloroform/methanol (1:1.5, v/v). The total lipids were extracted by the method of Bligh, E. G., and Dyer, W. J, Can. J. Biochem. Physiol. 37:911-917 (1959) by the further addition of 0.5 mL of chloroform and 1 mL of water with mixing. The lipid extract was redissolved in chloroform/methanol (9:1, v/v) containing 10 ug of carrier oleic acid. The oleic acid was separated from phospholipids by thin layer chromatography using gel-impregnated glass fiber sheets (ITLC type SG sheets). The sheets were preactivated by heating at 110° C. for 30 min. The lipid extract was applied to the sheets and chromatographed for 6 minutes, using hexane/acetic acid (100:1, v/v). The positions on the sheet containing oleic acid and phospholipids were visualized by exposure to iodine vapor and located by comparison to standards. The oleic acid and phospholipid zones were cut from the sheets, shaken individually with 2 ml of ethanol/water (80:20, v/v) and 15 ml of Aquasol, then counted for [^14 C] radioactivity (dpm). PLA2 activity, expressed as percent hydrolysis, was calculated from the formula: [formula] and was corrected for nonenzymatic hydrolysis of the substrate. Percent inhibition due to the presence of drug was calculated from the formula: [formula]
When various concentrations of a Compound of Formula I were tested, the percent inhibition at each concentration was plotted as log concentration (abscissa) versus percent inhibition (ordinate) and the IC50 was determined from this plot.

cellular PLA2 = assay: Inhibition of Cellular Phospholipase A2 (A23187-stimulated macrophages); assay type: cell-based; conditions: 5 μM; rat peritoneal macrophages, A-23187 stimulated
Method: II. Inhibition of Cellular Phospholipase A2. - % Inhibition of Cellular PLA2
Resident macrophages were obtained from rats by peritoneal lavage with phosphate buffered saline minus Ca2^++ and Mg2^++ (PBS). Cells were washed 3 times with PBS and resuspended in Dulbecco's Modified Eagle's Medium (GiBco) containing L-glutamine low D-glucose (1000 mg/L), and sodium pyruvate (110 mg/L), supplemented with 10% fetal calf serum. Cells were counted on a Coulter ZBI cell counter and then resuspended to a concentration of 6×10^6 cells/1.5 ml. The cell suspension (1.5 ml culture dishes (35 mm) and the cells were allowed to adhere to the dishes for 90 minutes at 37° C. Dishes were washed 3 times with PBS to remove non-adherent cells. [^14 C]arachidonic acid ([^14 C]-AA, approximately […], were added to the cells (1 uCi/dish) and allowed to incorporate for 120 minutes. Medium containing unincorporated [^14 C]-AA was removed and the cell layer was again washed 3 times with PBS. Inhibitors were dissolved in dimethylsulfoxide (DMSO) and added directly to the macrophages in Hank's Balanced Salt Solution (GiBco) phosphate-buffered, pH 7.4) to obtain the desired final concentration. Cells were incubated with drug or DMSO for 30 minutes at 37° C. and were then stimulated with calcium-ionophore A-23187 (0.75 uM) for 20 minutes. The extracellular medium was removed and the [^14 C] radioactivity released into this medium from AA metabolism was measured by liquid scintillation spectroscopy. The amounts of LTB4 and PGE2 were measured in the extracellular medium by radio immunoassay with specific antisera. The effects of inhibitor were measured as percent inhibition of A23187- stimulated AA metabolite release (^14 C release, PGE2 and LTB4 production) (control) which were calculated from the formula: [formula] IC50 's were calculated as described in the HSF-PLA2 assay.

Compound | IC50 ([1]; human synovial fluid PLA2, 30 min at 37° C., pH 7.3) [nM] | inhibition at 5 µM [1] [%] | % Inhib. of cellular PLA2 at 5 μM (cellular PLA2) [%]
CCCCCCCCn1c2c(c3cc(Oc4ccc(C(=O)O)o4)ccc31)CCCC2c1cccc(OC)c1 (racemic) [Example 153, rac-5-[[1,2,3,4-tetrahydro-1-(3-methoxyphenyl)-9-octyl-9H-dibenzo[b,d]pyrrol-6-yl]oxy]-2-furancarboxylic acid] | 2400 | 63 | 74
CCCCCCCCn1c2c(c3cc(/C=C/c4ccc(C(=O)O)o4)ccc31)C(C)(C)CC(C)(C)C2 [Example 46, (E)-5-[2-(1,2,3,4-tetrahydro-2,2,4,4-tetramethyl-9-octyl-9H-dibenzo[b,d]pyrrol-6-yl)ethenyl]-2-furancarboxylic acid] |  | 75 | 48
CCCCCCCCn1c2c(c3cc(/C(C)=C/c4ccc(C(=O)O)o4)ccc31)C(C)(C)CC(C)(C)C2 [Example 49, (E)-5-[2-methyl-2-(1,2,3,4-tetrahydro-2,2,4,4-tetramethyl-9-octyl-9H-dibenzo[b,d]pyrrol-6yl)ethenyl]-2-furancarboxylic acid] |  | 83 | 15
CCCCCCCCn1c2c(c3cc(Oc4ccc(C(=O)O)o4)ccc31)CC(C)(C)CC2 [Example 135, 5-[(1,2,3,4-tetrahydro-3,3-dimethyl-9-octyl-9H-dibenzo[b,d]pyrrol-6-yl)oxy]-2-furancarboxylic acid] |  | 66 | 90
CCCCn1c2c(c3cc(Oc4ccc(C(=O)O)o4)ccc31)CCCC2 [Example 136, 5-[(1,2,3,4-tetrahydro-9-butyl-9H-dibenzo[b,d]pyrrol-6-yl)oxy]-2-furancarboxylic acid] |  | 12 | 85
O=C(O)c1ccc(Oc2ccc3c(c2)c2c(n3Cc3ccc(Br)cc3)CCCC2)o1 [Example 137, 5-[[1,2,3,4-tetrahydro-9-(4-bromophenyl)methyl-9H-dibenzo[b,d]pyrrol-6-yl]oxy]-2-furancarboxylic acid] |  | 36 | 100
Cn1c2c(c3cc(Oc4ccc(C(=O)O)o4)ccc31)CCCC2 [Example 138, 5-[(1,2,3,4-tetrahydro-9-methyl-9H-dibenzo[b,d]pyrrol-6-yl)oxy]-2-furancarboxylic acid] |  | 39 | 13
CCCCCCCn1c2c(c3cc(Oc4ccc(C(=O)O)o4)ccc31)CCCC2 [Example 140, 5-[(1,2,3,4-tetrahydro-9-heptyl-9H-dibenzo[b,d]pyrrol-6-yl)oxy]-2-furancarboxylic acid] |  | 55 | 97
CCCCCCCCCCCCn1c2c(c3cc(Oc4ccc(C(=O)O)o4)ccc31)CCCC2 [Example 141, 5-[(1,2,3,4-tetrahydro-9-dodecyl-9H-dibenzo[b,d]pyrrol-6-yl)oxy]-2-furancarboxylic acid] |  | 66 | 74
CCCCCCCc1ccc(Cn2c3c(c4cc(Oc5ccc(C(=O)O)o5)ccc42)CCCC3)cc1 [Example 143, 5-[[1,2,3,4-tetrahydro-9-(4-heptylphenyl)methyl-9H-dibenzo[b,d]pyrrol-6-yl]oxy]-2-furancarboxylic acid] |  | 76 | 65
O=C(O)c1ccc(Oc2ccc3c(c2)c2c(n3Cc3ccccc3F)CCCC2)o1 [Example 148, 5-[[1,2,3,4-tetrahydro-9-[(2-fluorophenyl)methyl]-9H-dibenzo[b,d]pyrrol-6-yl]oxy]-2-furancarboxylic acid] |  | 65 | 97
Cc1ccc(Cn2c3c(c4cc(Oc5ccc(C(=O)O)o5)ccc42)CCCC3)cc1 [Example 151, 5-[[1,2,3,4-tetrahydro-9-[(4-methylphenyl)methyl]-9H-dibenzo[b,d]pyrrol-6-yl]oxy]-2-furancarboxylic acid] |  | 72 | 93
